Reference: patent publication US20240409585A1, “MACROCYCLIC IMMUNOMODULATORS” (priority 2021, published 2024)
Bridge positions count the residues as written; N and C are the ends. Square brackets hold non-standard residues; d marks the D form. Peptide text beside a SMILES is read from it. * marks the point of attachment. Phe(4-COOH) = N[C@@H](Cc1ccc(C(=O)O)cc1)C(=O)O; Bip = N[C@@H](Cc1ccc(-c2ccccc2)cc1)C(=O)O; Phe(3-CN) = N#Cc1cccc(C[C@H](N)C(=O)O)c1; Phe(3-Cl) = N[C@@H](Cc1cccc(Cl)c1)C(=O)O; Phe(3-OMe) = COc1cccc(C[C@H](N)C(=O)O)c1; Phe(3-Me) = Cc1cccc(C[C@H](N)C(=O)O)c1; Phe(2-F) = N[C@@H](Cc1ccccc1F)C(=O)O; 4Pal = N[C@@H](Cc1ccncc1)C(=O)O; Carboxymethyl = O=C(O)C*; NMeA = CN[C@@H](C)C(=O)O; Dab = NCC[C@H](N)C(=O)O; Dap = NC[C@H](N)C(=O)O

target: T1, PE-labeled human PD-L1-Ig binding to Jurkat cell line over-expressing human PD-1 (Jurkat-PD-1) (Homo sapiens, UniProt Q15116); test: Jurkat-PD-1 Cell Binding High-Content Screening Assay (CBA): Method 1; conditions: Jurkat-hPD-1 cells, PE-labeled PD-L1-Ig 20 nM final; read-out: Jurkat HPDL1 PD1 IC50 (uM) (Method 1)
T1 construct: expressed in transfected cells; host or cells: Jurkat
T1 sequence (Q15116 25-288): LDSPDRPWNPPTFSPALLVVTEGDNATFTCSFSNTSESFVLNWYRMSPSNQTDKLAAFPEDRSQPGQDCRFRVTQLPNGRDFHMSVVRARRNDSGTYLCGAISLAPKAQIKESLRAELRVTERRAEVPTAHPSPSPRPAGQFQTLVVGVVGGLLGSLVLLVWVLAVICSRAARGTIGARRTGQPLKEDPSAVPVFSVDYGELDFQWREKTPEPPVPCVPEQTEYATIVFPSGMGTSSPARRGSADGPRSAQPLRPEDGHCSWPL

| SMILES | IC50 [µM] |
| --- | --- |
| CC(C)C[C@@H]1NC(=O)[C@H](CCN)NC(=O)[C@@H](CC(C)C)NC(=O)[C@H](C)N(C)C(=O)[C@H](CCCNC(=N)N)NC(=O)[C@H](Cc2ccc(-c3ccccc3)cc2)NC(=O)[C@H](C(C)C)NC(=O)[C@H](Cc2c[nH]c3ccccc23)NC(=O)[C@H](CC(=O)O)NC(=O)[C@H](Cc2ccc(C(=O)O)cc2)NC(=O)[C@H](CC(N)=O)NC(=O)CSC[C@@H](C(=O)N[C@@H](C)C(N)=O)NC(=O)[C@H]([C@@H](C)O)NC(=O)[C@H](C(C)C)NC1=O [Compound 1452] ({CH2CO}-N[Phe(4-COOH)]DWV[Bip]R[NMeA][dL][Dab]LVTCA-NH2; thioether N-14) | 0.04 |
| COc1cccc(C[C@@H]2NC(=O)[C@H](CN)NC(=O)CSC[C@@H](C(=O)N[C@@H](C)C(N)=O)NC(=O)[C@H]([C@@H](C)O)NC(=O)[C@H](C(C)C)NC(=O)[C@H](CC(C)C)NC(=O)[C@H](CCN)NC(=O)[C@@H](CC(C)C)NC(=O)[C@H](C)N(C)C(=O)[C@H](CCCNC(=N)N)NC(=O)[C@H](Cc3ccc(-c4ccccc4)cc3)NC(=O)[C@H](C(C)C)NC(=O)[C@H](Cc3c[nH]c4ccccc34)NC(=O)[C@H](CC(=O)O)NC2=O)c1 [Compound 1453] ({CH2CO}-[Dap][Phe(3-OMe)]DWV[Bip]R[NMeA][dL][Dab]LVTCA-NH2; thioether N-14) | 0.08 |
| CC(C)C[C@@H]1NC(=O)[C@H](CCN)NC(=O)[C@@H](CC(C)C)NC(=O)[C@H](C)N(C)C(=O)[C@H](CCCNC(=N)N)NC(=O)[C@H](Cc2ccc(-c3ccccc3)cc2)NC(=O)[C@H](C(C)C)NC(=O)[C@H](Cc2c[nH]c3ccccc23)NC(=O)[C@H](CC(=O)O)NC(=O)[C@H](Cc2ccccc2F)NC(=O)[C@H](CN)NC(=O)CSC[C@@H](C(=O)N[C@@H](C)C(N)=O)NC(=O)[C@H]([C@@H](C)O)NC(=O)[C@H](C(C)C)NC1=O [Compound 1454] ({CH2CO}-[Dap][Phe(2-F)]DWV[Bip]R[NMeA][dL][Dab]LVTCA-NH2; thioether N-14) | 0.02 |
| Cc1cccc(C[C@@H]2NC(=O)[C@H](CC(=O)O)NC(=O)[C@H](Cc3ccc(OCC(=O)O)cc3)NC(=O)[C@H](CN)NC(=O)CSC[C@@H](C(=O)N[C@@H](C)C(N)=O)NC(=O)[C@H]([C@@H](C)O)NC(=O)[C@H](C(C)C)NC(=O)[C@H](CC(C)C)NC(=O)[C@H](CCN)NC(=O)[C@@H](CC(C)C)NC(=O)[C@H](C)N(C)C(=O)[C@H](CCCNC(=N)N)NC(=O)[C@H](Cc3ccc(-c4ccccc4)cc3)NC(=O)[C@H](C(C)C)NC2=O)c1 [Compound 1456] ({CH2CO}-[Dap]Y(Carboxymethyl)D[Phe(3-Me)]V[Bip]R[NMeA][dL][Dab]LVTCA-NH2; thioether N-14) | 0.04 |
| Cc1cccc(C[C@@H]2NC(=O)[C@H](CC(=O)O)NC(=O)[C@H](Cc3ccc(C(=O)O)cc3)NC(=O)[C@H](CN)NC(=O)CSC[C@@H](C(=O)N[C@@H](C)C(N)=O)NC(=O)[C@H]([C@@H](C)O)NC(=O)[C@H](C(C)C)NC(=O)[C@H](CC(C)C)NC(=O)[C@H](CCN)NC(=O)[C@@H](CC(C)C)NC(=O)[C@H](C)N(C)C(=O)[C@H](CCCNC(=N)N)NC(=O)[C@H](Cc3ccc(-c4ccccc4)cc3)NC(=O)[C@H](C(C)C)NC2=O)c1 [Compound 1457] ({CH2CO}-[Dap][Phe(4-COOH)]D[Phe(3-Me)]V[Bip]R[NMeA][dL][Dab]LVTCA-NH2; thioether N-14) | 0.01 |
| CC(C)C[C@@H]1NC(=O)[C@H](CCN)NC(=O)[C@@H](CC(C)C)NC(=O)[C@H](C)N(C)C(=O)[C@H](CCCNC(=N)N)NC(=O)[C@H](Cc2ccc(-c3ccccc3)cc2)NC(=O)[C@H](C(C)C)NC(=O)[C@H](Cc2cccc(Cl)c2)NC(=O)[C@H](CC(=O)O)NC(=O)[C@H](Cc2ccc(OCC(=O)O)cc2)NC(=O)[C@H](CN)NC(=O)CSC[C@@H](C(=O)N[C@@H](C)C(N)=O)NC(=O)[C@H]([C@@H](C)O)NC(=O)[C@H](C(C)C)NC1=O [Compound 1458] ({CH2CO}-[Dap]Y(Carboxymethyl)D[Phe(3-Cl)]V[Bip]R[NMeA][dL][Dab]LVTCA-NH2; thioether N-14) | 0.04 |
| CC(C)C[C@@H]1NC(=O)[C@H](CCN)NC(=O)[C@@H](CC(C)C)NC(=O)[C@H](C)N(C)C(=O)[C@H](CCCNC(=N)N)NC(=O)[C@H](Cc2ccc(-c3ccccc3)cc2)NC(=O)[C@H](C(C)C)NC(=O)[C@H](Cc2cccc(Cl)c2)NC(=O)[C@H](CC(=O)O)NC(=O)[C@H](Cc2ccc(C(=O)O)cc2)NC(=O)[C@H](CN)NC(=O)CSC[C@@H](C(=O)N[C@@H](C)C(N)=O)NC(=O)[C@H]([C@@H](C)O)NC(=O)[C@H](C(C)C)NC1=O [Compound 1459] ({CH2CO}-[Dap][Phe(4-COOH)]D[Phe(3-Cl)]V[Bip]R[NMeA][dL][Dab]LVTCA-NH2; thioether N-14) | 0.04 |

The next lines start with the values.

| IC50 [µM] | SMILES |
| --- | --- |
| 0.08 | CC(C)C[C@@H]1NC(=O)[C@H](CCN)NC(=O)[C@@H](CC(C)C)NC(=O)[C@H](C)N(C)C(=O)[C@H](CCCNC(=N)N)NC(=O)[C@H](Cc2ccc(-c3ccccc3)cc2)NC(=O)[C@H](C(C)C)NC(=O)[C@H](Cc2c[nH]c3ccccc23)NC(=O)[C@H](CC(=O)O)NC(=O)[C@H](Cc2cccc(C#N)c2)NC(=O)[C@H](CN)NC(=O)CSC[C@@H](C(=O)N[C@@H](C)C(N)=O)NC(=O)[C@H]([C@@H](C)O)NC(=O)[C@H](C(C)C)NC1=O [Compound 1455] ({CH2CO}-[Dap][Phe(3-CN)]DWV[Bip]R[NMeA][dL][Dab]LVTCA-NH2; thioether N-14) |
| 0.02 | COc1cccc(C[C@@H]2NC(=O)[C@H](CC(=O)O)NC(=O)[C@H](Cc3ccc(C(=O)O)cc3)NC(=O)[C@H](CN)NC(=O)CSC[C@@H](C(=O)N[C@@H](C)C(N)=O)NC(=O)[C@H]([C@@H](C)O)NC(=O)[C@H](C(C)C)NC(=O)[C@H](CC(C)C)NC(=O)[C@H](CCN)NC(=O)[C@@H](CC(C)C)NC(=O)[C@H](C)N(C)C(=O)[C@H](CCCNC(=N)N)NC(=O)[C@H](Cc3ccc(-c4ccccc4)cc3)NC(=O)[C@H](C(C)C)NC2=O)c1 [Compound 1460] ({CH2CO}-[Dap][Phe(4-COOH)]D[Phe(3-OMe)]V[Bip]R[NMeA][dL][Dab]LVTCA-NH2; thioether N-14) |
| 0.23 | CC(C)C[C@@H]1NC(=O)[C@H](CCN)NC(=O)[C@@H](CC(C)C)NC(=O)[C@H](C)N(C)C(=O)[C@H](CCCNC(=N)N)NC(=O)[C@H](Cc2ccc(-c3ccccc3)cc2)NC(=O)[C@H](C(C)C)NC(=O)[C@H](Cc2cccc(C#N)c2)NC(=O)[C@H](CC(=O)O)NC(=O)[C@H](Cc2ccc(C(=O)O)cc2)NC(=O)[C@H](CN)NC(=O)CSC[C@@H](C(=O)N[C@@H](C)C(N)=O)NC(=O)[C@H]([C@@H](C)O)NC(=O)[C@H](C(C)C)NC1=O [Compound 1461] ({CH2CO}-[Dap][Phe(4-COOH)]D[Phe(3-CN)]V[Bip]R[NMeA][dL][Dab]LVTCA-NH2; thioether N-14) |
| 0.01 | COc1cccc(C[C@@H]2NC(=O)[C@H](CC(=O)O)NC(=O)[C@H](Cc3cccc(C#N)c3)NC(=O)[C@H](Cc3ccncc3)NC(=O)CSC[C@@H](C(=O)N[C@@H](C)C(N)=O)NC(=O)[C@@H](CO)NC(=O)[C@H](C(C)C)NC(=O)[C@H](CC(C)C)NC(=O)[C@H](CC(N)=O)NC(=O)[C@@H](C)NC(=O)[C@H](C)N(C)C(=O)[C@H](C(C)C)NC(=O)[C@H](Cc3ccc(-c4ccccc4)cc3)NC(=O)[C@@H](CC(C)C)NC2=O)c1 [Compound 1462] ({CH2CO}-[4Pal][Phe(3-CN)]D[Phe(3-OMe)][dL][Bip]V[NMeA][dA]NLV[dS]CA-NH2; thioether N-14) |
